{"source": "patent US10188637B2", "about": "“Granulate formulation of 5-methyl-1-phenyl-2-(1H)-pyridone and method of making the same” (HOFFMANN-LA ROCHE INC., priority 2016, dated 2019)", "key": {"[1]": {"test_system": "human mesenchymal-like cells (lung fibroblasts, skin fibroblasts, prostate stromal cells, renal mesangial cells)", "conditions": "graded concentrations in cell culture media; cited from earlier work"}, "[2]": {"test": "Flow function coefficient (FFC) of powder blends mixed in a turbula mixer", "format": "physicochemical", "conditions": "powder blend", "protocol": "Flow function coefficient (FFC) is a measure of powder flow. Values less than about 4 are considered poor and sub-optimal for powder processing. Values between 4-10 are considered acceptable flow values for powder processing. Flow behavior was analyzed for pure pirfenidone (without excipients) and a binary powder mixture of pirfenidone and microcrystalline cellulose mixed with either about 1% by weight silica or about 2% by weight silica, as shown in Table 3 below. The components were mixed in a turbula mixer and the different flow properties of the blends were measured."}, "[3]": {"conditions": "after oral administration; cited from earlier work"}}, "data": [{"smiles": "Cc1ccc(=O)n(-c2ccccc2)c1", "note": "[Pirfenidone, 5-methyl-1-phenyl-2-(1H)-pyridone]", "values": [{"measurement": "Effective levels relative to levels exerting pharmacologically toxic effects on the cells", "setting": "[1]", "value": "ten to twenty times lower"}, {"measurement": "Flow Function Coefficient (Avg.)", "setting": "[2]", "value": 2.3}, {"measurement": "Flow Function Coefficient (Avg.), flow rating in words", "setting": "[2]", "value": "(poor flow)"}, {"measurement": "Observed side effects", "setting": "[3]", "value": "relatively mild (drowsiness, gastric nausea or photosensitivity rash)"}, {"measurement": "Serious adverse reactions", "setting": "[3]", "value": "No serious adverse reactions have been reported"}]}]}
